Experimental data from US20190032014A1, “USING MICROBIOTA METABOLITES TO DIFFERENTIATE NAÏVE T-CELLS AND RELATED METHODS TO INDUCE OR PREVENT INFLAMMATORY CONDITIONS” (THE TEXAS A&M UNIVERSITY SYSTEM, priority 2016, published 2019).
Entries after “also recorded” stand apart in the source; their conditions may differ.

Assays:
naïve T cells = settings: Arpaia et al. 2013; cited from earlier work
CD4+ CD25− naïve T cells [1] = test: In vitro naïve T cell differentiation, Treg-skew (FoxP3+ by FACS); assay type: cell-based, C57BL/6 mice; settings: Treg skewing conditions, vs DMF control
Protocol: (§1) Mesenteric lymph node (MLN) and spleen are harvested from WT or FOXP3^EGFP C57Bl/6 mice and homogenized. Spleen tissue is subjected to red blood cell lysis and pooled into a single cell suspension for counting. Counted cells are resuspended in sterile FACS buffer (PBS++ with 05% bovine serum albumin) at a concentration of ˜5×10^7 cells/mL and stained for 45 minutes at 4° C. with anti-CD4 and anti-CD25 fluorophore-conjugated monoclonal antibodies (mAb). After two washes, the stained cells are resuspended at ˜6×10^6 cells/mL in FACS buffer and immediately sorted. […] TDMMs are solubilized in DMF at 2 M and used at desired concentrations (e.g., 0.01, 0.1, 0.5 and 1.0 mM) in growth media; DMF in growth media (0.05%) is used as a solvent control.
(§2) The % of Treg or Th17 cells are determined based on the expression of signature transcription factors, FoxP3 and Rorγt, respectively. In addition, signature cytokine markers for Treg and Th17, TGFβ or IL-17, respectively, among others are measured using intracellular cytokine staining. Since it is possible that a cell could be positive for FoxP3 and still express some IL-17, the final % of Tregs are determined as the cell population that is FoxP3+TGFβ+ Rorγt-IL-17−. Similarly, the % of Th17 cells are determined as the population that is FoxP3-TGFβ− Rorγt+IL-17+.
(§3) CD4+ CD25− T cells were isolated to high purity (>98%) from the pooled spleen and mesenteric lymph nodes of C57BL/6 mice (Jackson Labs) with a BD FACS Aria II flow cytometer. Fc Block (BD), αCD4-efluor450 (eBioscience clone GK1.5) and αCD25-PECy7 (eBioscience clone PC61.5) antibodies were used for staining before sorting.
(§4) For Th1-skew: 5 ng/mL IL-12 (Peprotech cat. #210-12) and 10 µg/mL αIL-4 (BioXCell clone 11B11) were added to culture. For Th2-skew: 10 ng/mL IL-4 (Peprotech) and 10 μg/mL αIFN-γ (BioXCell clone R4-6A2) were added to culture. For Th17-skew: 10 ng/mL IL-6 (Peprotech), 5 ng/mL IL-23 (R&D), 0.5 ng/mL TGF-β (Peprotech), 10 μg/mL al-4 (BioXCell clone 11B11), and 10 μg/mL αIFN-γ (BioXCell clone R4-6A2) were added to culture. For Treg-skew: 2 ng/mL TGF-β (Peprotech) and 100 U/mL IL-2 (Roche) were added to culture. Sodium Propionate, sodium acetate, sodium butyrate and sodium chloride (all from Sigma-Aldrich) were solubilized in media and added to culture. Indole was solubilized in DMF (both from Sigma-Aldrich) at 2M and brought to final concentration in media. MGCD0103 (Selleck Chemicals) was solubilized in DMF at 2 mM and brought to final concentration in media. A 0.05% DMF solvent control was used for all experiments.

CD4+ CD25− naïve T cells [2] = test: In vitro naïve T cell differentiation, Th17-skew (IL-17+ by FACS); assay type: cell-based, C57BL/6 mice; settings: Th17 skewing conditions, vs DMF control
Protocol: as §1, §2, §3, §4

IL-6 receptor / pSTAT3 = test: IL-6 receptor levels and STAT3 activity; assay type: cell-based; settings: vs control
Protocol: Indole and 5-HI were assessed for impact on TGF-β receptor expression and SMAD2/3 activity. […] Indole and 5-HI were also assessed for impact on IL-6 receptor levels and subsequent STAT3 activity.

CD4+ CD25− naïve T cells [3] = test: In vitro naïve T cell differentiation, Th17-skew (IL-17+ by FACS); assay type: cell-based, C57BL/6 mice; settings: low and high titrations of IL-6
Th17 transfer colitis = Th17 transfer colitis murine model; assay type: in vivo, Rag-null mice
Protocol: Finally, the presentation describes a study of the effects of an indole-induced iTreg skew on the course of colitis in a Th17 transfer colitis murine model. […] Briefly, naïve T-cells (CD4+CD25−) were cultured in vitro with cytokines to skew function towards a Th17 phenotype, in the presence of indole or 5-HI, or not. The skewed cultures were transferred to Rag-null mice (lack T- and B-lymphocytes); control mice received no T-cells. Mice were monitored for weight loss (as a measure of inflammation) over several weeks and assessed at indicated timepoints for T-cell phenotype.
The body weight of the mice was monitored from the time of cell transfer to the end point of day 49. […] Next, the Treg, Th17, and Th1 differentiation was assessed in cells obtained from the mesenteric lymph nodes (MLN) of mice administered directly with indole, 5-HI and control. These cells were determined/assayed by FACS for phenotype directly ex vivo from mice that were treated as in FIG. 28.

CD4+ CD25− naïve T cells [4] = test: In vitro naïve T cell differentiation, Th1-skew (IFN-γ+); assay type: cell-based, C57BL/6 mice; settings: Th1 skewing conditions; vs solvent control; listed as 5-HI
Protocol: When naïve CD4+ CD25− cells were cultured 72 hours in αCD3/28 coated wells with Th0-, Th1- or Th2-skew cytokines and indole or solvent control, followed by stimulation with PMA, Ionomycin and Golgi Plug for the last 5 hours of culture, no effect on the % of Th1 and Th2 cells was observed (in contrast to the significant effect that indole has on Treg and Th17 cells; see FIGS. 2A and 2B).
as §3, §4

[5] = test system: naïve T cells obtained from humans; test: Skewing of naïve T cells obtained from humans; assay type: cell-based
[6] = test system: wild-type or AhR KO T cells; test: T cell differentiation in wild-type vs AhR KO T cells; assay type: cell-based, mice
Protocol: The aryl hydrocarbon receptor (AhR) is implicated in the differentiation of Treg and Th17 cells. The role of AhR was assessed with respect to indole's effect on Treg augmentation. Wild-type and AhR KO naïve T-cells were conditioned with increasing amounts of indole and then assessed for % of FoxP3 expression. […] Additionally, the role of AhR was assessed with respect to indole's effect on Th17 inhibition.
The AhR knockout was further investigated for iTreg homing markers, CD62L and α4β7, as described above.
Next, the AhR knockout was further investigated for the impact of AhR on 5-HI-mediated T cell differentiation.

[7] = MLN, D15 and D45, by the end point

In the case of CCC(=O)O [propionate, reference compound], the “differentiation of naïve T cells to Treg cells” value (naïve T cells) is listed as “promoted differentiation of naïve T cells to Treg cells”, the “effect on % FoxP3+ cells / Treg differentiation” value (CD4+ CD25− naïve T cells [1]) is listed as “increases Treg and Th17 development” and the “effect on % IL-17+ cells / Th17 differentiation” value (CD4+ CD25− naïve T cells [2]) is listed as “increases Treg and Th17 development”.
In the case of CC(=O)O [acetate, reference compound], the “effect on % FoxP3+ cells / Treg differentiation” value (CD4+ CD25− naïve T cells [1]) is reported as “no effect on Treg development” and the “effect on % IL-17+ cells / Th17 differentiation” value (CD4+ CD25− naïve T cells [2]) is reported as “increases Th17 development”.
In the case of O=C(O)C(=O)Cc1c[nH]c2ccccc12 [Indole-3-pyruvate], the “effect on % FoxP3+ cells / Treg differentiation” value (CD4+ CD25− naïve T cells [1]) is reported as “increasing Treg cells” and the “effect on % IL-17+ cells / Th17 differentiation” value (CD4+ CD25− naïve T cells [2]) is reported as “modest (but significant) decrease in Th17”.
With Oc1ccc2[nH]ccc2c1 [5-hydroxyindole] the “% pSTAT3+ cells / IL-6 induced stat3” value (IL-6 receptor / pSTAT3) was “augments the IL-6 induced stat3 expression”, the “% IL-17+ cells with titrations of IL-6” value (CD4+ CD25− naïve T cells [3]) was “increased the % IL-17+ cells” and the “effect on % FoxP3+ cells / Treg differentiation” value (CD4+ CD25− naïve T cells [1]) was “decreasing the Treg population”. For the same molecule, the “effect on % FoxP3+ cells / Treg differentiation” value (CD4+ CD25− naïve T cells [1]; listed as 5-HI) was “inhibits a Treg response; also recorded: strongly inhibits Treg differentiation; also recorded: decreased the % FoxP3+ cells”, the “Th1 differentiation in vivo (% INF-γ+ T cells, Th1/Treg balance, MLN)” value (Th17 transfer colitis; [7]) was “increases the number of Th17 differentiation in vivo” and the “Th17 differentiation in vivo (% IL-17+ T cells, Th17/Treg balance, MLN)” value (Th17 transfer colitis; [7]) was “increases the number of Th17 differentiation in vivo”. The “weight change (% from starting weight)” value (Th17 transfer colitis; mice receiving conditioned Th17 T cells, around day 43, end point day 49) was “declined precipitously”, the “Th17 transfer colitis in vivo (overall)” value (Th17 transfer colitis; mouse, in vivo) was “exacerbates Th17 transfer colitis in vivo” and the “effect on % Th1 cells (IFN-γ+)” value (CD4+ CD25− naïve T cells [4]) was “promotes Th1 and Th17 differentiation; also recorded: increase in % IFN-γ+ cells”. For the same molecule, the “skewing effects on Tregs and Th17 cells in human cells” value [5] was “recapitulated on naïve T cells obtained from humans”, the “effect on % IL-17+ cells / Th17 differentiation” value (CD4+ CD25− naïve T cells [2]) was “increases Th17 cells” and the “effect on % IL-17+ cells / Th17 differentiation” value (CD4+ CD25− naïve T cells [2]; listed as 5-HI) was “pro-Th17 response; also recorded: promotes Th1 and Th17 differentiation; also recorded: significant increase in % IL-17+ cells”. The “% IL-17+ in wild-type vs AhR KO T cells” value [6] was “significantly increased over wild-type cells”, the “% of IFN-γ+ T cells in AhR KO vs wild-type T cells” value ([6]; Th1 skew) was “not significantly different than in wild-type cells” and the “FoxP3+ % in wild-type vs AhR KO T cells” value ([6]; increasing amounts of test substance) was “decreases similarly in wild-type and AhR KO cells”.
